According to US20220323410A1, “OXYTOCIN ANTAGONIST DOSING REGIMENS FOR PROMOTING EMBRYO IMPLANTATION AND PREVENTING MISCARRIAGE” (ObsEva S.A., priority 2019, published 2022):
One block for each compound: values may come before it.

How the values were obtained:
[1] = crystal form with XRPD peaks of Table 1; cited from earlier work
CYP2D6 = CYP2D6 (Homo sapiens, UniProt P10635); test: Metabolism by CYP2D6 isoform; assay type: in vitro ADME; conditions: substantially pure (3E) diastereomer; also CYP2C19
CYP2D6, sequence (P10635 whole entry, canonical isoform): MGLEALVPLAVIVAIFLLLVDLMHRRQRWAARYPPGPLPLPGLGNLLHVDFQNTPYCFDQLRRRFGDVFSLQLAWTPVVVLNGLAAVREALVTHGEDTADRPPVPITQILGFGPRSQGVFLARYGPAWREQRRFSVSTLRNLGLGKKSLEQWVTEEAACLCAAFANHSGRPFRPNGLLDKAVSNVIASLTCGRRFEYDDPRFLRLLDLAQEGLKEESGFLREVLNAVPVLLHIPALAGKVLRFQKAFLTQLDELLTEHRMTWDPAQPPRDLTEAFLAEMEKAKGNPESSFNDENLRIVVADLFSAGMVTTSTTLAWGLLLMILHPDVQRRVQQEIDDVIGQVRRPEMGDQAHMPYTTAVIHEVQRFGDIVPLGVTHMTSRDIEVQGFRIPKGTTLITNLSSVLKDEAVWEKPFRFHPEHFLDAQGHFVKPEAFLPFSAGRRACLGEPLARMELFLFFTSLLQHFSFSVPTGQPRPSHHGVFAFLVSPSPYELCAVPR
Procedure: (§1) At five time points over the course of a 45 minute experiment, the compounds were analyzed by LC-MS/MS. The percentage of each compound remaining at each time point, along with the metabolic half-lives of each compound in the presence of each cytochrome P450 isoform, are indicated in Tables 10-12, below.

[2] = Phase 2 clinical study of Example 1: serum level of compound (II) at embryo transfer; assay type: in vivo; conditions: female, human, mean
Text: (§2) A total of 247 female subjects were selected for treatment based on a variety of inclusion criteria. Of these, 244 subjects completed the study. The study was open to healthy female volunteers from 18 to 36 years of age that had previously undergone up to one IVF or ICSI cycle that resulting in a negative pregnancy test as assessed by hCG detection, despite the transfer of at least one embryo of good quality, which was defined as an embryo having from six to eight blastomeres of uniform size and shape on the day of embryo transfer, ooplasm having no granularity, absence of multinucleation, and a maximum fragmentation of 10%. Subjects included in the study had at least one functional ovary and were capable of communicating with the investigator and research staff and complying with the requirements of the study protocol. Data are presented in the form of mean (standard deviation).
Subjects included in the study underwent an initial screening period beginning up to 12 weeks prior to the day of oocyte retrieval from the subject. During this 12-week period, subjects underwent physical and gynecological examination in preparation for oocyte retrieval. This analysis included a recordation of the subjects' vital signs, hematology and biochemistry analysis of blood samples withdrawn from the subjects, urinary analysis, and a comprehensive review of the subjects' medical histories.
At the conclusion of the screening period, subjects underwent controlled ovarian hyperstimulation by administration of a GnRH antagonist so as to prevent a premature rise in serum LH concentration. Concurrent pre-treatment with an oral contraceptive prior to controlled ovarian hyperstimulation was allowed, but not required. Final follicular maturation was performed with a single administration of hCG to the subject. […]
(§3) The embryo transfer procedure was conducted three days after the oocyte retrieval day (OPU+3 days). Subjects undergoing embryo transfer were monitored prior to initiating the procedure. […]

[3] = tested on: female human subjects undergoing embryo transfer therapy; test: Clinical studies of embryo implantation in subjects undergoing embryo transfer therapy (Example 1); assay type: in vivo
Text: as §2
Subjects included in the study underwent an initial screening period beginning up to 12 weeks prior to the day of oocyte retrieval from the subject. During this 12-week period, subjects underwent physical and gynecological examination in preparation for oocyte retrieval. […]
as §3

[4] = tested on: uterine contractions in human subjects; test: Uterine contractility in human subjects (Example 4); conditions: in vivo
Text: Values along the y-axis represent the quantity of uterine contractions (UC) per minute.

[5] = tested on: endometrial blood flow in human subjects; test: Endometrial blood flow in human subjects (Example 4); conditions: in vivo
Text: Values along the y-axis represent endometrial flow index (FI), a parameter that is proportional to the volumetric quantity of blood that circulates through the endometrium in a given period of time.
Values along the y-axis represent endometrial vascularity index (VI), a parameter that is proportional to the total quantity of blood vessels in a subject's endometrium.
Values along the y-axis represent vascularity flow index (VFI), a parameter that is proportional to the total quantity of blood that circulates through a given volume of a subject's endometrium.

[6] = tested on: subjects undergoing embryo transfer; test: Pregnancy and live birth rates, clinical study in subjects undergoing embryo transfer; assay type: in vivo, human; conditions: post hoc, pre-dose serum P4 quartiles 1-3; significant dose-dependent fashion (p<0.02)
Procedure: From one to two embryos of good quality were transferred to each subject. To reduce uterine contractions at the time of embryo transfer, soft or ultra-soft catheters were used and contact with the uterine fundus was avoided. Any difficulties that occurred during the embryo transfer procedure were recorded, including instances in which uterine sounding or cervical dilation were required, instances in which a harder catheter was required, or instances in which blood was found in any part of the catheter.
Approximately 1 hour following embryo transfer, subjects underwent a final physical examination and were subsequently discharged from the clinical unit until the first follow-up visit, which occurred at about 14 days following oocyte retrieval (OPU+14 days). At this time, subjects underwent a physical examination as well as a blood sample analysis to assess pregnancy by detection of hCG. […] Pregnancy status was monitored by detecting embryo heartbeat. […]
Positive blood pregnancy test at 14 days following oocyte retrieval and positive embryo heartbeat at 10 weeks following oocyte retrieval were assessed in the same manner as described above. Change from baseline to the time of embryo transfer in uterine contraction rate was analyzed by the Wilcoxon Rank Sum Test by comparing the uterine contraction rate associated with each dose to that observed with placebo-treated subjects.

CYP3A4 = CYP3A4 (Homo sapiens, UniProt P08684); test: Metabolism by CYP3A4 isoform; assay type: in vitro ADME; conditions: substantially pure compound (II)
CYP3A4, sequence (P08684 whole entry, canonical isoform): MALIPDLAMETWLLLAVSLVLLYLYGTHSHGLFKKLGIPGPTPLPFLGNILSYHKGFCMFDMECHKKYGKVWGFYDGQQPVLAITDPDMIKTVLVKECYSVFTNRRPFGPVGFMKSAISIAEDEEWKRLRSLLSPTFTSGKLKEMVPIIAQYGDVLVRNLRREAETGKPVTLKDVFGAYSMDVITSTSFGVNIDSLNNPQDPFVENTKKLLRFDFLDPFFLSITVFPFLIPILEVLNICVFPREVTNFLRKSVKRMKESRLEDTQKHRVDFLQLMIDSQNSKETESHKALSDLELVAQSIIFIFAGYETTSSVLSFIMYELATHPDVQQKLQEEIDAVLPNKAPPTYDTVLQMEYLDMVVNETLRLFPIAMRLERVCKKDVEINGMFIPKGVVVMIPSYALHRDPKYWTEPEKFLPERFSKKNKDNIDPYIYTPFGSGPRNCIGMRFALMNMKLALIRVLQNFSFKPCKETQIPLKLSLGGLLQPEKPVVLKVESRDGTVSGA
Procedure: as §1

[7] = Concentration of compound (II) after single oral dose in healthy female volunteers; assay type: in vivo, human; conditions: oral administration of either the 900 mg or the 1,800 mg dose; FIG. 6
Procedure: (§4) Particularly, subjects were pre-treated with estradiol valerate at a dosage of 2 mg administered 3 times per day (TID) for 16 days. Administration of estradiol valerate was followed by vaginal progesterone at a dosage of 200 mg administered TID.

uterine contractions = test: Uterine contractions by ultrasound in healthy female volunteers; assay type: in vivo, human; conditions: 1,800 mg dose
Procedure: as §4
(§5) These assessments included measurements of uterine contractions by ultrasound and uterine perfusion by a 3D-power Doppler technique.
(§6) Mean and median changes in uterine contraction frequency and endometrial vascularity indices (particularly, endometrial flow index (FI), vascularity index (VI), and vascularity flow index (VFI)) were calculated. […] Differences in endometrial mRNA expression were identified and assessed for statistical significance.

endometrial perfusion = test: Uterine perfusion by 3D-power Doppler in healthy female volunteers; assay type: in vivo, human; conditions: baseline to 24 hours; both 900 mg and 1,800 mg doses
Procedure: as §4, §5, §6

[8] = tested on: endometrial RNA transcript expression; test: Endometrial RNA transcript expression by RNA-Seq in healthy female volunteers; assay type: in vivo, human; conditions: 900 mg
Procedure: as §4, §5, §6
Using an RNA-Seq assay, each subject's expression of a variety of genes, including DPP4, CNTNAP3, CNTN4, CXCL12, TNXB, CTSE, OLFM4, KRT5, KRT6A, and IDO2, was then assessed to determine whether the expression of each gene increased, decreased, or underwent no significant change due to administration of the compound or placebo.

[9] = tested on: spontaneous uterine contractions; conditions: cited from earlier work

SMILES: CO/N=C1/C[C@@H](CO)N(C(=O)c2ccc(-c3ccccc3C)cc2)C1 [crystal form of compound (II), (3Z,5S)-5-(hydroxymethyl)-1-[(2′-methyl-1,1′-biphenyl-4-yl)carbonyl]pyrrolidin-3-one O-methyloxime]
- stability to aqueous media and physical stress [1]: enhanced stability to aqueous media and physical stress

SMILES: CO/N=C1\C[C@@H](CO)N(C(=O)c2ccc(-c3ccccc3C)cc2)C1 [(3E) isomer, (3E,5S)-5-(hydroxymethyl)-1-[(2′-methyl-1,1′-biphenyl-4-yl)carbonyl]pyrrolidin-3-one O-methyloxime]
- Preferential metabolism by cytochrome P450 isoform (CYP2D6): preferentially metabolized by cytochrome P450 isoforms 2D6 (CYP2D6) and 2C19 (CYP2C19)

- concentration at 4 hours ([2]; 100 mg oral dose about 4 hours prior to embryo transfer, n = 62): 484 ng/mL
- concentration at 4 hours ([2]; 300 mg oral dose about 4 hours prior to embryo transfer, n = 60): 1450 ng/mL
- concentration at 4 hours ([2]; 900 mg oral dose about 4 hours prior to embryo transfer, n = 60): 4160 ng/mL
- Time at which maximum concentration is reached [7]: about 4 hours
SMILES: CO/N=C1/C[C@@H](CO)N(C(=O)c2ccc(-c3ccccc3C)cc2)C1 [compound (II), (3Z,5S)-5-(hydroxymethyl)-1-[(2′-methyl-1,1′-biphenyl-4-yl)carbonyl]pyrrolidin-3-one O-methyloxime]
- successful embryo implantation rate ([3]; dose-dependent, particularly strong at pre-treatment serum P4 below 320 nM): improve successful embryo implantation rate
- risk of embryo implantation failure ([3]; human subjects that previously underwent ovarian hyperstimulation and oocyte retrieval): reduce the risk of embryo implantation failure
- uterine contractility [4]: reduce uterine contractility
- flow of blood to the endometrium [5]: augment the flow of blood to the endometrium
- Pregnancy and live-birth rates versus placebo group [6]: overall increase in pregnancy and live-birth rates in the treatment arms versus the placebo group
- Preferential metabolism by cytochrome P450 isoform (CYP3A4): preferentially metabolized by cytochrome P450 isoform 3A4 (CYP3A4)
- Proportion of subjects showing less than one uterine contraction per minute versus placebo (uterine contractions; p=0.0121): significance was seen at the 8-hour time point
- Number of uterine contractions per minute versus placebo (uterine contractions; p=0.0923 at 4 hours, p=0.0081 at 8 hours): contraction-reducing effects were observed from the 4-hour time point onwards
- Endometrial perfusion parameters, median values (endometrial perfusion): marked and sustained increases in median values
- mRNA expression in endometrial biopsy tissue compared to placebo [8]: No differences in mRNA expression
- Reduction in spontaneous uterine contractions ([9]; 10, 30, and 60 mg/kg, anesthetized late-term pregnant rats): dose-dependent reduction in spontaneous uterine contractions
- Inhibitory activity with respect to uterine contraction versus (3E) diastereomer ([9]; same vehicle, same model organism): markedly higher than that of the substantially pure (3E) diastereomer
